The values below come from paper PMC9916658, “Design and Synthesis of New Quinazolin-4-one Derivatives with Negative mGlu7 Receptor Modulation Activity and Antipsychotic-Like Properties” (International Journal of Molecular Sciences, 2023).

For orientation: AUC(0-t) means exposure summed from dosing to a finite time, without extrapolation to infinity. The term Cmax denotes the peak of the concentration-time curve. As usually defined, the Tmax is the time at which the peak concentration occurs. Usually half-life stands for how long it takes for the measured level to halve. Higher therefore signals slow loss. The term bioavailability denotes the share of a dose that reaches the circulation, judged against a reference dose that is usually intravenous.

For data set [1], the system named is animal models of schizophrenia. The conditions noted are these: cited from earlier work.
For data set [2], the system named is MK-801-induced disruptions of social interactions in mice. Nature of the data set: Social interaction test (MK-801-induced deficits). Format: in vivo. The conditions noted are these: all tested doses. Here is the method:
The method was adapted from de Moura Linck et al., 2008 [57], and Woźniak et al., 2016 [58]. After the 2-day habituation trial (10 min/day), a pair of mice was placed in the open field for 5 min. The social interactions between the two mice were determined based on the total time spent participating in social behavior, such as genital investigation, sniffing, chasing, and fighting each other. The total number of social episodes was also measured. The test was video-recorded and viewed by a trained observer.

A short description of data set [3]: Pharmacokinetics of ALX-171 after i.v. and p.o. administration. The data set is classed as in vivo. The conditions noted are these: mouse, female BALB/c mice.
The subject of the next data set is choice accuracy in rats. Nature of the data set: Spatial delayed alternation test. The data set is classed as in vivo.

For `CCc1nc2c(o1)CC(c1ccc(C)cc1C)CC2=O` (stereo not drawn) [ADX71743, reference compound], in data set [1], the DOI-induced head twitches entry is given as “active”, the “MK-801-induced disruptions in social interaction” value is “active”, the “cognitive impairment in novel object recognition” value is “active” and the “prepulse inhibition (PPI)” value is reported as “active”. In addition, the “activity in animal models of schizophrenia” value in data set [1] (mGlu7 NAMs) is recorded as “antipsychotic activity”.

As for `COc1cccc(-c2ccc3nc(-c4ccccc4Cl)n(C)c(=O)c3c2)c1OC` [ALX-171, 2-(2-chlorophenyl)-6-(2,3-dimethoxyphenyl)-3-methylquinazolin-4(3H)-one], in data set [2], the “MK-801-induced disruption in the interaction time” value is given as “reversed” and the “MK-801-induced disruption in the number of episodes” value is “reversed”. In addition, in data set [3] (iv, brain, i.v. 3 mg/kg), the AUC(0-t) was 3.27 µM·h, the Cmax was found to be 1850 nM, the Tmax worked out at 0.25 h and the half-life was 3.41 h. In data set [3] (iv, plasma, i.v. 3 mg/kg), the AUC(0-t) was 2.91 µM·h, the Cmax was 1590 nM, the Tmax amounted to 0.25 h and the Vd was found to be 7.63 L/kg. The half-life in data set [3] (iv, plasma, i.v. 3 mg/kg) is 2.26 h. For the same compound, the bioavailability in data set [3] (plasma, oral, p.o. 5 mg/kg vs i.v. 3 mg/kg, read-out: F (peroral bioavailability)) is 58%. Besides, in data set [3] (po, brain, p.o. 5 mg/kg), the AUC(0-t) was 2.97 µM·h, the highest level (Cmax) was 1360 nM, the Tmax was 0.5 h and the half-life was 2.95 h. Further, in data set [3] (po, plasma, p.o. 5 mg/kg), the AUC(0-t) was 2.63 µM·h, the Cmax was 1090 nM, the time to peak (Tmax) turned out to be 0.5 h and the half-life was 3.08 h. Further, the “choice accuracy, compound administered alone” value in the data set with choice accuracy in rats is given as “no negative effect”. Moreover, in the data set on choice accuracy in rats (highest dose tested 5 mg/kg), the “MK-801-induced disruptions in the number of alternations” value is recorded as “reversed”.
